Assay results reported in patent EP2163246A1, “Taurine or taurine-like substances for the prevention of the irreversible visual effects of vigabatrin” (INSERM (Institut National de la Santé et de la Recherche …, priority 2008, dated 2010).
“Also recorded” adds a separate entry of the source. Like-named read-outs stand apart in the source and are kept apart here.

Legend:
[1] = system: GABA; settings: rats (Neal MJ. et al. 1989; Cubells JF. et al. 1987); cited from earlier work
[2] = system: retina; set-up: species or system Wistar rats Rj Wi IOPS Han; settings: rat, in vivo
Procedure: (§1) ERG were recorded as described previously after the last VGB injection (Duboc et al., 2004). Anesthesia was induced by an intramuscular injection of a solution containing ketamine (100 mg/kg) and xylazine (10 mg/kg). After 10 min adaptation to a […] light intensity, ten recordings were obtained with flash intensity of 10 cdsm^-2 at an interstimulus interval 30s and subsequently averaged. These photopic ERG measurements were performed after 59 days in rats and 29 days in mice.
(§2) Sabril IS Investigator and Peer Review Groups. Epilepsia Vol. 37, 638-642 (1996)).
(§3) Animals were light-adapted for 10 minutes with a background light of 25 cdm^-2. Light flashes were then applied on this background light; the light intensity of the flash was 10 cdsm^-2 for the mouse experiments and for the rats maintained in darkness (Figs. 2, 6) or 25 cdsm^-2 for other experiments (Figs 3, 5). Ten recordings were averaged with an interstimulus interval of 30s.

[3] = system: cone photoreceptors; assay: Retinal histology quantification in VGB-treated mice (DAPI, PNA, Goα); assay type: in vivo, BALB/c mice
Procedure: (§4) Sabril IS Investigator and Peer Review Groups. Epilepsia Vol. 37, 638-642 (1996)). […] The primary antibody added to the solution was incubated for two hours at room temperature. Polyclonal antibodies were directed against VGluT1 (1:2000, Chemicon), rabbit GFAP (1/400, Dako, USA) and mouse cone arrestin (Zhu, X., et al. Mouse cone arrestin expression pattern: light induced translocation in cone photoreceptors. Molecular vision Vol. 8, 462-471 (2002)) (Luminaire junior, LUMIj, 1:20,000). Monoclonal antibodies were directed against Goα (1:2000, Chemicon). […] Inner/outer segments of cone photoreceptors were stained with a peanut lectin (PNA, Sigma) during 12 hours of incubation at 4°C. The dye, diamidiphenyl-indole (DAPI), was added during the final incubation period. […] Following DAPI nuclear staining, the lengths of disorganised retinal areas were measured; GFAP immunostaining was used for detection and quantificationof retinal areas with reactive gliosis. The cone photoreceptor density was calculated following cone arrestin immunostaining (rats) or PNA labelling (mice) to visualise the inner/outer segments of cone photoreceptors; areas with disorganised retinal layering were excluded. Areas with sprouting bipolar cells were quantified following immunolabelling of these cells with the antibody directed against the protein Goα.

[4] = system: cone photoreceptors; assay: Retinal histology quantification in VGB-treated rats (cone arrestin, GFAP); assay type: in vivo, Wistar rats Rj Wi IOPS Han
Procedure: as §4

[5] = rats (Sills GJ. et al. 2001); cited from earlier work
[6] = rats, VGB 65 days, versus control
Procedure: VGB was dissolved in 0.9 % NaCl at a concentration of 125 mg/ml. It was administered at 40 mg (125 mg/ml, 0.32 ml) by daily intraperitoneal injection for 45 or 65 days and at 3 mg (60 mg/ml, 0.05 ml) to mice for 29 days (daily dose of about 200 mg/kg in rats and 150 mg/kg in mice). Vitamin B6 (active form) was administered at a dose of 1 mM/kg (solution 154,46 mg/ml) whereas taurine was provided in the drinking water at 0,1 mol/l.
After 65 days of injection, rats were anesthetized for blood sampling. Anesthesia was induced as described above. Under anesthesia an indwelling catheter was placed in the carotid artery. This method allowed obtaining a single, large, good quality blood sample. A 1 mL blood sampling was taken for each rat in a heparinized blood sampler, immediately centrifuged and frozen at -80°C. Automated amino acid ion chromatography (Pasteur Cerba, France) was used for the quantitative determination of total and free amino acids in the samples.
VGB dissolved in 0.9% NaCl was administered at 40mg (125 mg/ml, 0.32ml) to rats by daily intraperitoneal injection for 45 or 65 days and at 3mg (60mg/ml, 0.05ml) to mice for 29 days. […] Taurine supplementation was given in drinking water at a concentration of 0.1M.

[7] = system: retinal ganglion cells; settings: young rats, VGB 0.6 mg/day i.p. 25 days, versus control
Procedure: Animal treatments: Breeds of Wistar rats Rj Wi IOPS Han were purchased from Janvier (Le Genest-St-lsle, France). VGB dissolved in 0.9% NaCl was administered at 0.6mg/jour (6 mg/ml, 0.1ml) to rats by daily intraperitoneal injection for 25 days from age 4 days.
Histology: Animals were anesthetized by intraperitoneal injection (0.8 to 1.2 ml/kg) of a solution containing ketamine (40 mg/ml) and xylazine (4 mg/ml Rompum). They were then perfused first with heaparin 1000Ul/ml in saline solution (0.9% NaCl), then with fixative containing 4% Paraformaldehyde (Merck chemicals ref. : 100496 ) and 0.2% glutaraldehyde (fluka 25%). Eye cups were isolated and fixed overnight at 4°C in 4% (wt/vol) paraformaldehyde in phosphate buffered saline (PBS; 0.01 M, pH 7.4). The tissue was cryoprotected in successive solutions of PBS containing 10%, 20% and 30% sucrose at 4°C, oriented along the dorso-ventral axis and embedded in OCT (Labonord, Villeneuve d'Ascq, France). […]
For quantification, vertical sections along the dorso-ventral axis were selected at the optic nerve. Brn3A -positive retinal ganglion cells were quantified along the complete retinal section. […]

[8] = system: retina; assay: Photopic electroretinogram (ERG) in VGB-treated mice; assay type: in vivo, BALB/c mice
Procedure: as §1, §2, §3

[9] = VGB plus taurine versus VGB alone, p<0.001

C=CC(N)CCC(=O)O (stereo not drawn) [VGB, 4-amino-5-hexenoic acid]
GABA concentrations in the brain relative to control rats [1]: two-fold higher
GABA concentrations in the retina relative to control rats [1]: five-fold higher
photopic ERG amplitude [2]: induced a decrease in the photopic electroretinogram (ERG) measurement
sprouting of bipolar cell dendrites ([3]; VGB alone): observed in VGB-treated mice
density of cone outer and inner segments ([3]; VGB alone versus control, p<0.001 (Fig. 4C)): lower densities
GFAP immunostaining ([4]; VGB alone): increase in GFAP immunostaining
concentration in the retina relative to the brain [5]: five-fold higher
decrease of taurine level in vigabatrin-treated animals ([6]; p<0.05): 67%
difference (reduction) for methionine ([6]; significant): 22%
reduction of glutamic acid in the blood sample ([6]; statistically significant): 56%
decrease of the number of retinal ganglion cells [7]: 56%

NCCS(=O)(=O)O [taurine, 2-aminoethanesulfonic acid]
photopic ERG amplitude ([8]; mouse, in vivo): the difference was no longer statistically significant between controls and vigabatrin plus taurine supplementation
sprouting of bipolar cell dendrites ([3]; VGB plus taurine): completely suppressed
cone density [3, 9]: prevented this decrease in cone density
disorganisation of the outer nuclear layer (areas of retinal disorganisation) ([3]; VGB plus taurine versus VGB alone, p<0.001 (Fig. 4B)): smaller areas of retinal disorganisation than mice without supplementation
GFAP immunostaining [4, 9]: less extensive in animals receiving taurine supplementation than in animals without supplementation
cone segment density ([4]; VGB plus taurine versus VGB alone, p<0.05, remained lower than control): greater in the VGB-treated group with taurine supplementation than in animals without supplementation

Cc1ncc(COP(=O)(O)O)c(C=O)c1O [vitamin B6, pyridoxal-5'-phosphate]
photopic ERG amplitude ([8]; mice, VGB plus vitamin B6 (active form) 1 mM/kg (Fig. 1B)): smaller decrease in photopic ERG than with vigabatrin alone; also recorded: reduced the decrease in photopic ERG amplitude
